Data: patent publication US20030109418A1, “Methods for identifying compounds for inhibition of neoplastic lesions, and pharmaceutical compositions containing such compounds” (priority 1999, published 2003)

Columns and labels:
[1] = biological target: T1, PDE peak A (PDE5) from SW480 cells (Homo sapiens, UniProt O76074); test: cGMP hydrolysis inhibition, PDE peak A from SW480; type: biochemical; conditions: cGMP hydrolysis, 0.25 μM 3H-cGMP
T1 construct: endogenous in cells; host or cells: SW480 colon cancer cells, DEAE-Trisacryl M fraction

[2] = biological target: T2, purified cyclooxygenase (Type 1, COX-I) from ram seminal vesicles (Ovis aries, UniProt P05979); test: COX inhibition assay, purified cyclooxygenase; type: biochemical
T2 construct: using purified cyclooxygenase from ram seminal vesicles as described previously; tissue Cayman Chemical, Ann Arbor, Mich; (named in the general protocol only); host or cells: ram seminal vesicles
T2 sequence (P05979 25-600): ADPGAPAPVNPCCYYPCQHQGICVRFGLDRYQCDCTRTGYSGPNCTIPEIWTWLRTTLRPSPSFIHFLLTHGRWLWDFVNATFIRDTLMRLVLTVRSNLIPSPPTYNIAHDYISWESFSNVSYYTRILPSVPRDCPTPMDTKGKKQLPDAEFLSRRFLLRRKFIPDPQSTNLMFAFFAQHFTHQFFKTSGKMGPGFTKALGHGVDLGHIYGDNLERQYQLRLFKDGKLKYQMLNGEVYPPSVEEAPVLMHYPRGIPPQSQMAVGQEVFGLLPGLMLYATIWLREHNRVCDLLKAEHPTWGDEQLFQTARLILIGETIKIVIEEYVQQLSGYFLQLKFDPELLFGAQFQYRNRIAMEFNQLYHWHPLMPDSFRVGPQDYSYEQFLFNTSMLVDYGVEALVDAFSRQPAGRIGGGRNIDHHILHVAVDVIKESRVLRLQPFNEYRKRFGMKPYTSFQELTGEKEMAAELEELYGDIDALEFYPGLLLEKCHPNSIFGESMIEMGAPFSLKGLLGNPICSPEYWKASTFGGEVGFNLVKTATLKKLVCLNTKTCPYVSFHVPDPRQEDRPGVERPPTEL

[3] = tested on: cGMP PDE purified from human colon HT-29 cultured tumor cells; test: cGMP PDE inhibition assay; type: biochemical
[4] = tested on: PDE4 purified from human colon HT-29 cultured tumor cells; test: PDE4 inhibition assay; type: biochemical; conditions: HT-29 cell enzyme
[5] = tested on: cGMP and cAMP levels in HT-29 cells; test: Cyclic nucleotide levels in cultured cells by radioimmunoassay; type: cell-based, human; conditions: HT-29 cells treated 30 minutes
[6] = tested on: HT-29 colon adenocarcinoma cells; test: Apoptosis by DNA fragmentation assay in HT-29; type: cell-based, human; conditions: qualitative activity profile; also: key: −: Not active; +: Slightly active; ++: Moderately active; +++: Strongly active; ++++: Highly active
HCT116, Colon = test: Growth inhibition, SRB assay, HCT116; type: cell-based
Description: (§1) A compound's ability to inhibit tumor cell growth can be measured using the HT-29 human colon carcinoma cell line obtained from ATCC. HT-29 cells have previously been characterized as a relevant colon tumor cell culture model (Fogh, J., and Trempe, G. In: Human Tumor Cells in Vitro, J. Fogh (eds.), Plenum Press, New York, pp. 115-159, 1975). HT-29 cells are maintained in RPMI media supplemented with 5% fetal bovine calf serum (Gemini Bioproducts, Inc., Carlsbad, Calif.) and 2 mm glutamine, and 1% antibiotic-antimycotic in a humidified atmosphere of 95% air and 5% CO2 at 37° C. Briefly, HT-29 cells are plated at a density of 500 cells/well in 96 well microtiter plates and incubated for 24 hours at 37° C. prior to the addition of compound. […] After six days in culture, the cells are fixed by the addition of cold trichloroacetic acid to a final concentration of 10% and protein levels are measured using the sulforhodamine B (SRB) colorimetric protein stain assay as previously described by Skehan, P., Storeng, R., Scudiero, D., Monks, A., McMahon, J., Vistica, D., Warren, J. T., Bokesch, H., Kenney, S., and Boyd, M. R., “New Colorimetric Assay For Anticancer-Drug Screening,” J. Natl. Cancer Inst. […]
(§2) To show the effectiveness of this screening method on various forms of neoplasia, compounds were tested on numerous cell lines. […] The IC50 values were determined by the SRB assay. […]

UACC375, Melanoma = test: Growth inhibition, SRB assay, UACC375; type: cell-based
Description: as §1, §2

A-427, Lung = test: Growth inhibition, SRB assay, A-427; type: cell-based
Description: as §1, §2

[7] = tested on: Bronchial Epithelial Cells; test: Growth inhibition, SRB assay, bronchial epithelial cells; type: cell-based
Description: as §1, §2

[8] = tested on: premalignant lesions in mouse mammary gland organ culture; test: Mammary gland organ culture model; type: cell-based; as to mammary gland organ culture: key: −: Not active; +: Slightly active; ++: Moderately active; +++: Strongly active; ++++: Highly active
Description: Test compounds identified by the above methods can be tested for antineoplastic activity by their ability to inhibit the incidence of pre-neoplastic lesions in a mammary gland organ culture system. This mouse mammary gland organ culture technique has been successfully used by other investigators to study the effects of known antineoplastic agents such as certain NSAIDs, retinoids, tamoxifen, selenium, and certain natural products, and is useful for validation of the screening method of the present invention.
For example, female BALB/c mice can be treated with a combination of estradiol and progesterone daily, in order to prime the glands to be responsive to hormones in vitro. The animals are sacrificed, and thoracic mammary glands are excised aseptically and incubated for ten days in growth media supplemented with insulin, prolactin, hydrocortisone, and aldosterone. DMBA (7,12-dimethylbenz(a)anthracene) is added to medium to induce the formation of premalignant lesions. Fully developed glands are then deprived of prolactin, hydrocortisone, and aldosterone, resulting in the regression of the glands but not the pre-malignant lesions.
The test compound is dissolved in DMSO and added to the culture media for the duration of the culture period. At the end of the culture period, the glands are fixed in 10% formalin, stained with alum carmine, and mounted on glass slides. The incidence of forming mammary lesions is the ratio of the glands with mammary lesions to […]. The incidence of mammary lesions in test compound treated glands is compared with that of the untreated glands.
The extent of the area occupied by the mammary lesions can be quantitated by projecting an image of the gland onto a digitation pad. The area covered by the gland is traced on the pad and considered as 100% of the area. The space covered by each of the non-regressed structures is also outlined on the digitization pad and quantitated by the computer.
Mammary gland organ culture experiment were performed as previously described (Mehta and Moon, Cancer Research, 46: 5832-5835, 1986). […] The data support the hypothesis that cyclooxygenase inhibition is not necessary for the anti-neoplastic properties of desired compounds.

[9] = biological target: T3, cGMP binding sites of the GST-cGB-PDE5 protein (Homo sapiens, UniProt O76074); test: cGMP binding assay with GST-cGB-PDE5 fusion protein; conditions: 3H-cGMP 2 μM
T3 construct: made in house; host or cells: E. coli BL21 (DE3)

“5-fluoro-2-methyl-1-(p-methylsulfinylbenzylidene)-3-indenylacetic acid [Sulindac sulfide]” was tested, and the IC50 [1] was 50 µM, the “Cyclooxygenase inhibitory activity, % Inhibition at 100 μM” value ([2]; 100 μM) was 97% and the “COX Inhibition” value ([2]; qualitative activity profile) was “++++”. The “cGMP PDE inhibitory activity, % Inhibition at 10 μM” value ([3]; 10 μM) was 97%, the “PDE Inhibition” value ([3]; qualitative activity profile) was “+++” and the IC50 ([3]; read-out: IC50 for inhibition of cGMP PDE, HT-29 cell enzyme) was 17 µM. For the same substance, the IC50 [4] was 41 µM, the “effect on cAMP levels” value [5] was “unaffected” and the “increase of cGMP levels” value [5] was “greater than 50%”. The EC50 ([5]; read-out: EC50 for increase of cGMP) was 7.3 µM, the Apoptosis [6] was “+++” and the IC50 (HCT116, Colon) was 45 µM. It also gave an IC50 (UACC375, Melanoma) of 50 µM, an IC50 (A-427, Lung) of 90 µM and an IC50 [7] of 30 µM. The “inhibition of the formation of premalignant lesions” value ([8]; mammary gland organ culture) was “inactive”, the “Mammary Gland Organ Culture” value ([8]; qualitative activity profile) was “−” and the “competition with cGMP in binding of GST-cGB-PDE5” value [9] was “do not bind to the cGMP binding sites of PDE5”.
